Laboratory results from US20170066759A1, “AROMATIC 5-MEMBERED HETEROCYCLIC DERIVATIVE HAVING TRPV4-INHIBITING ACTIVITY” (Shionogi & Co., Ltd., priority 2012, published 2017).

Target: T1, human TRPV4 (hTRPV4/CHO cells) (Homo sapiens, UniProt Q9HBA0)
T1 construct: expressed in transfected cells; host or cells: CHO-K1
Assay: Test Example 4: TRPV4 inhibitory activity (Ki value), 4α-PDD stimulation, Fluo-3 calcium fluorescence (FDSS 3000)
Format: cell-based
Conditions: Test Example 4, 4α-PDD stimulation, read-out: Test 4 Ki
Experimental: TRPV4 Inhibitory Activity (Ki Value)
For each compound, TRPV4 inhibitory activity was measured using cells.
(Method) The procedures of evaluating TRPV4 inhibitory activity of a compound are as follows.
(1) TRPV4 inhibitory activity was measured using CHO-K1 cells stably expressing human TRPV4 (hTRPV4/CHO cells).
(2) Cells were subcultured using the MEM-α medium (SIGMA M4526: 500 ml), FBS (HyCloneSH30070.03: 10%), L-Glutamine 200 mmol/L (GIBCO: 4 mmol/L), P/S (nacalai tesque: 1%), G418 (nacalai tesque: 1 mg/mL).
(3) The 96-well plates which hTRPV4/CHO cells were seeded at densities of 2×10^4 cells/well in the culture medium in the day before the experimental day, and cultured in a CO2 incubator in the presence of 5% CO2 at 37° C. for 24 hours was used as assay plates.
(4) Cells were washed with assay buffer (Hank's Balanced Salt Solution 9.8 g, 1 mol/L HEPES (pH7.5), 250 mmol/L probenecid).
(5) Fluo-3, fluorescent dye for Ca influx assay was added to each well, then the assay plate was incubated in a CO2 incubator in the presence of 5% CO2 at 37° C. for one hour (final conc.; 5 μmol/L Fluo-3).
(6) The assay plate was washed with the assay buffer, and the buffer was remained at 30 μL/well. Then the assay plate was incubated for 10 min at 37° C.
(7) 20 μL of diluted compound solution was added to each well of assay plate, and mixed with built-in Pipette and Mixer of the fluorescence analysis system FDSS 3000 (Hamamatsu Photonics).
(8) 50 μL of 4α-PDD solution (concluding 0.1% Pluronic F-127) was applied to each well of assay plate and mixed.
(9) The fluorescent intensity was measured by FDSS 3000 for 8 min from the point of time addition the compound solution, at Ex 480 nm, Em 540 nm wavelength.
TRPV4 inhibitory activity (Ki value) of a compound was calculated according to the following procedure.
(10) In the presence of the compound, the difference between maximal and minimal of fluorescent intensity value for 8 min from just before addition of 4α-PDD solution was calculated, and it was referred as Max-Min value. Max-Min value of the Ruthenium Red at 10 μM was defined as 100% inhibitory activity, Max-Min value in the absence of the compound was defined as 0% inhibitory activity. TRPV4 inhibitory activity of the compound was calculated by the following formula.
(1−(Max−Min value of the compound−100% inhibitory activity)/(0% inhibitory activity−100% inhibitory activity))×100
(11) By the following formula, inhibitory activity was calculated at 10 points with three fold serial dilution, in the final concentration of the compound from 10 μmol/L to 0.5 nmol/L. The IC50 value was calculated by dose-response curve.
100−[(fluorescent intensity in the presence of the compound−fluorescent intensity of back ground)/(total fluorescent intensity−fluorescent intensity of back ground)]×100
(12) In the presence of the compound, activity of 4α-PDD was measured at 9 points with three fold serial dilution from 20 μmol/L. Activity of 4α-PDD was calculated by the following formula.
(Max−Min value of the each 4α-PDD concentration−0% activity)/(100% activity−0% activity))×100
(13) Effective activity was calculated in 4α-PDD the above. The EC50 value was calculated by dose-response curve.
(14) The Ki value of a compound was calculated by the following formula.
Ki=IC50 value/1+([A]/EC50)
[A]: Concentration of agonist (nmol/L)

T1 sequence (Q9HBA0 whole entry): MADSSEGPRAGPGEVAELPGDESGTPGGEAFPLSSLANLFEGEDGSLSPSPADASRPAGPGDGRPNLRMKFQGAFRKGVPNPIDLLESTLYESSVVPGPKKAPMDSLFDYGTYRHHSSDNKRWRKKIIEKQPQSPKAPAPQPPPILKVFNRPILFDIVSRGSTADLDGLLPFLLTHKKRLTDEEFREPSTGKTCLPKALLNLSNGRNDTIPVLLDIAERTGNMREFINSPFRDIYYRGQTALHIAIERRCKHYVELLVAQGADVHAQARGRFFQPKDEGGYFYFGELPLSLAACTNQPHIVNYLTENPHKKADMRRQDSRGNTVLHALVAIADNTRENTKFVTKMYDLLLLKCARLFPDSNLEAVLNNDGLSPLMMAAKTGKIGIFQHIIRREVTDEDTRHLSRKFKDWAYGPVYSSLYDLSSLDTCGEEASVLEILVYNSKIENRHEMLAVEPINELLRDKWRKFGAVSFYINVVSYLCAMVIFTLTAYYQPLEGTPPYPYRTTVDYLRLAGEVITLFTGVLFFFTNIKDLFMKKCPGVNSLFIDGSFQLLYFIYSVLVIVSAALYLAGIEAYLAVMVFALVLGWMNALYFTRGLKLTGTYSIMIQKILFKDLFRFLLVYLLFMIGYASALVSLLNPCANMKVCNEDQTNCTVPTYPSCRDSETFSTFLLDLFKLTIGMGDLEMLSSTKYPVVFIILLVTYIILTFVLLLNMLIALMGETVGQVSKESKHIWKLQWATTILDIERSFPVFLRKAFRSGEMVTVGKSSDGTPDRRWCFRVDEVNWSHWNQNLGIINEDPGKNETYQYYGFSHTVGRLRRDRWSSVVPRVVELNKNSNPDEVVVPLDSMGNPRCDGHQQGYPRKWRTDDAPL

| SMILES | Ki |
| --- | --- |
| Cc1nc(C)c(-c2csc(NC(=O)C3CCCO3)n2)s1 (centres unmarked) [Compound I-6] | 1000 to 3000 nM |
| Cc1nc(C)c(-c2csc(NC(=O)Cc3cc(F)cc(F)c3)n2)s1 [Compound I-52] | < 100 nM |
| Cc1nc(C)c(-c2csc(NC(=O)Cc3ccc(Br)cc3)n2)o1 [Compound I-231] | 100 to 1000 nM |
| Cc1nc(C)c(-c2csc(Nc3ccc(F)cc3)n2)s1 [II-27] | 100 to 1000 nM |
| CCCCCCCCCCCC(=O)Nc1nc(-c2sc(C)nc2C)cs1 [Compound I-220] | 100 to 1000 nM |
| Cc1nc(C)c(-c2csc(NC(=O)Cc3ccc(Cl)cc3)n2)s1 [Compound I-230] | < 100 nM |
| Cc1nc(C)c(-c2csc(NC(=O)Cc3ccccn3)n2)s1 [Compound I-7] | 100 to 1000 nM |
| Cc1nc(C)c(-c2csc(NC(=O)Cc3c(F)cccc3F)n2)o1 [Compound I-58] | < 100 nM |
| C=C(C)c1ncc(-c2csc(NC(=O)Cc3ccc(S(=O)(=O)C(F)(F)F)cc3)n2)s1 [Compound I-25] | 100 to 1000 nM |
| Cc1nc(C)c(-c2csc(NC(=O)[C@H]3CC[C@H](SCC(F)(F)F)C3)n2)s1 (racemic) [Compound I-536] | < 100 nM |
| CCCC(=O)Nc1nc(-c2sc(C)nc2C)cs1 [Compound I-219] | 100 to 1000 nM |
| Cc1nc(C)c(-c2csc(NC(=O)COc3ccc(Cl)cc3)n2)s1 [Compound I-229] | < 100 nM |
| Cc1nc(C)c(-c2csc(NC(=O)[C@H]3CC[C@H](S(=O)(=O)CC(F)(F)F)C3)n2)s1 (racemic) [Compound I-57] | 100 to 1000 nM |
| Cc1nc(C)c(-c2csc(NC(=O)CC3CCS(=O)(=O)C3)n2)s1 (centres unmarked) [Compound I-51] | 1000 to 3000 nM |
| Cc1nc(C)c(-c2csc(NC(=O)c3ccc(Br)cc3)n2)s1 [Compound I-232] | 100 to 1000 nM |
| Cc1nc(C)c(-c2csc(NC(=O)Nc3ccc(Br)cc3)n2)s1 [Compound I-233] | 1000 to 3000 nM |
| Cc1nc(C)c(-c2csc(NC(=O)CCC(F)(F)F)n2)s1 [Compound I-38] | < 100 nM |
| Cc1nc(C)c(-c2csc(NC(=O)[C@H]3CC[C@H](C#N)C3)n2)s1 (racemic) [Compound I-56] | 100 to 1000 nM |
| Cc1nc(C)c(-c2csc(NC(=O)c3ccc(F)c(Cl)c3)n2)s1 [Compound I-10] | 100 to 1000 nM |
| Cc1nc(C)c(-c2csc(NC(=O)C3CCC(=O)C3)n2)s1 (racemic) [Compound I-37] | 1000 to 3000 nM |

The next lines start with the values.

| Ki | SMILES |
| --- | --- |
| 100 to 1000 nM | Cc1nc(C)c(-c2csc(NC(=O)C3(C)CC3)n2)s1 [Compound I-28] |
| 100 to 1000 nM | COC(C(=O)Nc1nc(-c2sc(C)nc2C)cs1)c1ccccc1 (centres unmarked) [Compound I-5] |
| 100 to 1000 nM | Cc1nc(C)c(-c2csc(NC(=O)CC(C)(C)C)n2)s1 [Compound I-9] |
| 100 to 1000 nM | O=C(Cc1ccc(C(F)(F)F)cc1)Nc1nc(-c2sc(Cl)nc2Cl)cs1 [Compound I-15] |
| 100 to 1000 nM | Cc1nc(C)c(-c2csc(Nc3ccc(N(C)C)cc3)n2)s1 [II-28] |
| < 100 nM | CCCCCC(=O)Nc1nc(-c2sc(C)nc2C)cs1 [Compound I-222] |
| 100 to 1000 nM | Cc1nc(C)c(-c2csc(NC(=O)C3(O)CC3)n2)s1 [Compound I-26] |
| 100 to 1000 nM | Cc1nc(C)c(-c2csc(NC(=O)CCc3ccccc3)n2)s1 [Compound I-228] |
| 100 to 1000 nM | Cc1nc(C)c(-c2csc(Nc3ccc(Cl)cc3)n2)s1 [II-26] |
| 100 to 1000 nM | O=C(Nc1nc(-c2sc(Cl)nc2Cl)cs1)C1CCC(F)(F)C1 (centres unmarked) [Compound I-535] |
| < 100 nM | Cc1nc(C)c(-c2csc(NC(=O)Cc3ccc(OC(F)(F)F)cc3)n2)s1 [Compound I-21] |
| < 100 nM | Cc1nc(C)c(-c2csc(NC(=O)Cc3ccc(SC(F)(F)F)cc3)n2)s1 [Compound I-22] |
